Reference: EP4342905B1, “1,N6-ETHENOADENOSINE DERIVATIVES FOR CANCER TREATMENT” (PHILIPPS-UNIVERSITÄT MARBURG, priority 2022, dated 2024)
Where a name gives a salt, the structure may show the parent alone.

Tests used:
[1] = tested on: Panc-1 cells; experiment: CellTiter-Glo Luminescent Cell Viability Assay, Panc-1 as PDAC model; type: cell-based, human; conditions: for IC50: Panc-1 cells, 72 h compound incubation, mean ± SD of at least three independent biological repeats; for activity against human Panc-1 pancreatic carcinoma cells compared to gemcitabine: comparison with gemcitabine
Protocol: The biological antitumor-activity of adenosine derivatives according to Formula I towards pancreatic ductal adenocarcinoma (PDAC) was evaluated by utilizing the established cell line Panc-1 as a PDAC model by applying the CellTiter-Glo® Luminescent Cell Viability Assay (Promega) after 72 h of compound incubation. Gemcitabine (100 µM) was used as a positive control. To analyze the cytotoxic efficacy in Panc-1 cells, dose-response curves were generated for each compound, starting from a concentration of 100 µM with serial dilution of 1:3. IC50 values are shown as arithmetic means of at least three independent biological repeats in following Table 1. Table 1: IC50-Values for the inhibition of PADC by adenosine and 1,N6-ethenoadenosine derivatives (with the respective standard deviations SD)

[2] = logPOW determination, water/1-octanol distribution with UV/VIS readout; type: physicochemical; conditions: 1 h stirring, room temperature (23 °C), ratio of maximal UV absorbances; for logP at 1 h: read-out: logPOW (measured)
Protocol: All logPOW values reported herein are determined as follows: 2 mg of the compound to be measured are distributed in a 250 ml beaker between a two-phase mixture of water (50 ml) and 1-octanol (50 ml) and stirred for 1 h on a magnetic stirrer at room temperature (23 °C). After separation of the layers, 3 ml of each phase are removed and transferred into a 3.5 ml quartz cuvette (10 x 10 mm, 3500 µl; Hellma, Darmstadt, Germany) and measured on a UV/VIS spectrometer (Cary 50, Varian, Darmstadt, Germany). From the ratio of maximal absorbances in both layers (λmax) the corresponding log10POW values are determined.

| Structure (SMILES) | IC50 ([1]; Homo sapiens) | activity against human Panc-1 pancreatic carcinoma cells compared to gemcitabine [1] | logPOW (measured) [2] | logP at 1 h [2] | IC50 [1] |
| --- | --- | --- | --- | --- | --- |
| CCCCCCCCC1(CCCCCCCC)O[C@@H]2[C@H](O1)[C@@H](CO)O[C@H]2n1cnc2c1ncn1ccnc21 [Compound 4b, ((3aR,4R,6R,6aR)-6-(3H-imidazo[2,1-i]purin-3-yl)-2,2-dioctyitetrahydrofuro[3,4-d][1,3]dioxol-4-yl)methanol Hydrochloride] | 16.2 ± 1.35 µM | more active | 2.57 | 2.57 | – |
| CCCCCCCCCCCCCC1(C)O[C@@H]2[C@H](O1)[C@@H](CO)O[C@H]2n1cnc2c(N)ncnc21 (stereo partly drawn) [Compound 2c, ((2R/2S,3aR,4R,6R,6aR)-6-(6-amino-9H-purin-9-yl)-2-methyl-2-tridecyltetrahydrofuro[3,4-d][1,3]dioxol-4-yl)methanol] | – | – | 2.83 | – | – |
| Cl.OC[C@H]1O[C@@H](n2cnc3c2ncn2ccnc32)[C@@H]2OC3(CCCCCCCCCCCCCC3)O[C@@H]21 [Compound 5, ((3a'R,4'R,6'R,6a'R)-4'-(3H-imidazo[2,1-i]purin-3-yl)tetrahydrospiro[cyclopentadecane-1,2'-furo[3,4-d][1,3]dioxol]-6'-yl)methanol Hydrochloride] | 23.1 ± 3.6 µM | – | 1.67 | 1.67 | – |
| CCCCCCCC1(CCCCCCC)O[C@@H]2[C@H](O1)[C@@H](CO)O[C@H]2n1cnc2c(N)ncnc21 [Compound 2a, ((3aR,4R,6R,6aR)-6-(6-amino-9H-purin-9-yl)-2,2-diheptyltetrahydrofuro[3,4-d][1,3]dioxol-4-yl)methanol] | 14.58 ± 0.14 µM | more active | 2.82 | 2.82 | – |
| CCCCCCCC1(CCCCCCC)O[C@@H]2[C@H](O1)[C@@H](CO)O[C@H]2n1cnc2c1ncn1ccnc21.Cl [Compound 4a, ((3aR,4R,6R,6aR)-6-(3H-imidazo[2,1-i]purin-3-yl)-2,2-diheptyltetrahydrofuro[3,4-d][1,3]dioxol-4-yl)methanol Hydrochloride] | 17.1 ± 3.14 µM | – | 2.40 | 2.4 | – |
| CCCCCCCCC1(CCCCCCCC)O[C@@H]2[C@H](O1)[C@@H](CO)O[C@H]2n1cnc2c(N)ncnc21 [Compound 2b, ((3aR,4R,6R,6aR)-6-(6-amino-9H-purin-9-yl)-2,2-dioctyltetrahydrofuro[3,4-d][1,3]dioxol-4-yl)methanol] | – | – | 3.86 | 3.86 | – |
| CCCCCCCCCCCCCC1(CC)O[C@@H]2[C@H](O1)[C@@H](CO)O[C@H]2n1cnc2c1ncn1ccnc21.Cl (stereo partly drawn) [Compound 4d, ((2R/2S,3aR,4R,6R,6aR)-6-(3H-imidazo[2,1-i]purin-3-yl)-2-ethyl-2-tridecyltetrahydrofuro[3,4-d][1,3]dioxol-4-yl)methanol Hydrochloride] | – | – | 2.29 | – | 16 ± 4.31 µM |
| CCCCCCCCCCCCCC1(CC)O[C@@H]2[C@H](O1)[C@@H](CO)O[C@H]2n1cnc2c(N)ncnc21 (stereo partly drawn) [Compound 2d, ((2R/2S,3aR,4R,6R,6aR)-6-(6-amino-9H-purin-9-yl)-2-ethyl-2-tridecyltetrahydrofuro[3,4-d][1,3]dioxol-4-yl)methanol] | – | more active | 3.60 | – | 14.6 ± 0.69 µM |
| CCCCCCCCCCCCCC1(C)O[C@@H]2[C@H](O1)[C@@H](CO)O[C@H]2n1cnc2c(N)ncnc21.Cl (stereo partly drawn) [Compound 4c, ((2R/2S,3aR,4R,6R,6aR)-6-(6-amino-9H-purin-9-yl)-2-methyl-2-tridecyltetrahydrofuro[3,4-d][1,3]dioxol-4-yl)methanol Hydrochloride] | – | more active | 2.75 | – | 30.6 ± 2.53 µM |
